Laboratory results as given in ChEMBL document CHEMBL3286136, “Discovery of camphor-derived pyrazolones as 11β-hydroxysteroid dehydrogenase type 1 inhibitors” (Bioorg Med Chem Lett, 2014).
In brackets after ≈: the same amount, converted by molar mass.

Legend:
[1] = Clearance in iv dosed rat; assay type: ADME, organism-based; conditions: in vivo
[2] = target: 11-beta-hydroxysteroid dehydrogenase 1 (Rattus norvegicus, UniProt P16232); experiment: Inhibition of rat 11betaHSD1 assessed as reduction of cortisone to cortisol by ELISA
Sequence of 11-beta-hydroxysteroid dehydrogenase 1 (Rattus norvegicus, UniProt P16232) (P16232 whole entry): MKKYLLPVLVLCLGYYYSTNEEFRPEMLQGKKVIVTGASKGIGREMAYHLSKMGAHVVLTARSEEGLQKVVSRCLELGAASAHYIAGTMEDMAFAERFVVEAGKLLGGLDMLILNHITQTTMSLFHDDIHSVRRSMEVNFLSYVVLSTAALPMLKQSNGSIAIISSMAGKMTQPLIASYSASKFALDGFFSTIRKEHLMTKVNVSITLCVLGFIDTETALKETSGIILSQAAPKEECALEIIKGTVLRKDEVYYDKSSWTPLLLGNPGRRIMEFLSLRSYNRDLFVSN

[3] = Tmax in po dosed rat; assay type: ADME, organism-based; conditions: in vivo
[4] = Cmax in rat at 20 mg/kg, po; assay type: ADME, organism-based; set-up: dose 20 mg/kg, route oral; conditions: in vivo
[5] = Volume of distribution at steady state in iv dosed rat; assay type: ADME, organism-based; conditions: in vivo, read-out: Vdss
[6] = Effective permeability of the compound at pH 6.5 by PAMPA; assay type: physicochemical; conditions: read-out: Peff
[7] = Kinetic aqueous solubility of the compound at pH 6.5; assay type: physicochemical; conditions: read-out: Kinetic_solubility
[8] = Half life in iv dosed rat; assay type: ADME, organism-based; conditions: in vivo
[9] = target: Cytochrome P450 3A4 (Homo sapiens, UniProt P08684); experiment: Inhibition of CYP3A4 (unknown origin); assay type: ADME
Sequence of Cytochrome P450 3A4 (P08684 whole entry): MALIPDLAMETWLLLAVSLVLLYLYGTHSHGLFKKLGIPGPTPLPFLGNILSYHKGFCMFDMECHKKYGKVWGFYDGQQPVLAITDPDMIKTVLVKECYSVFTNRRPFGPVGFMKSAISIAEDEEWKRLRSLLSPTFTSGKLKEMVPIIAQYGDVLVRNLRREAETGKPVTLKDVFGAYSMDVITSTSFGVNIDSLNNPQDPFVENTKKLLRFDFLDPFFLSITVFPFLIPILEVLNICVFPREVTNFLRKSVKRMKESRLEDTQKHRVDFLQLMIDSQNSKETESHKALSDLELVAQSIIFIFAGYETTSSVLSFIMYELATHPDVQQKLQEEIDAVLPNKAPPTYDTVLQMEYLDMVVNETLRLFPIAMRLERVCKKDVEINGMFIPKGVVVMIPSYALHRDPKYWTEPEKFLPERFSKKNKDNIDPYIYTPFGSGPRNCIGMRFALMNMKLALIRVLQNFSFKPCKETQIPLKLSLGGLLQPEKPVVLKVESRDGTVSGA

[10] = Oral bioavailability in rat; assay type: ADME, organism-based; conditions: in vivo
[11] = Clearance in human liver microsomes at 1 uM; assay type: ADME; conditions: read-out: CLH
[12] = target: hERG (KCNH2) (Homo sapiens, UniProt Q12809); experiment: Inhibition of human ERG
Sequence of hERG (KCNH2) (Q12809 whole entry): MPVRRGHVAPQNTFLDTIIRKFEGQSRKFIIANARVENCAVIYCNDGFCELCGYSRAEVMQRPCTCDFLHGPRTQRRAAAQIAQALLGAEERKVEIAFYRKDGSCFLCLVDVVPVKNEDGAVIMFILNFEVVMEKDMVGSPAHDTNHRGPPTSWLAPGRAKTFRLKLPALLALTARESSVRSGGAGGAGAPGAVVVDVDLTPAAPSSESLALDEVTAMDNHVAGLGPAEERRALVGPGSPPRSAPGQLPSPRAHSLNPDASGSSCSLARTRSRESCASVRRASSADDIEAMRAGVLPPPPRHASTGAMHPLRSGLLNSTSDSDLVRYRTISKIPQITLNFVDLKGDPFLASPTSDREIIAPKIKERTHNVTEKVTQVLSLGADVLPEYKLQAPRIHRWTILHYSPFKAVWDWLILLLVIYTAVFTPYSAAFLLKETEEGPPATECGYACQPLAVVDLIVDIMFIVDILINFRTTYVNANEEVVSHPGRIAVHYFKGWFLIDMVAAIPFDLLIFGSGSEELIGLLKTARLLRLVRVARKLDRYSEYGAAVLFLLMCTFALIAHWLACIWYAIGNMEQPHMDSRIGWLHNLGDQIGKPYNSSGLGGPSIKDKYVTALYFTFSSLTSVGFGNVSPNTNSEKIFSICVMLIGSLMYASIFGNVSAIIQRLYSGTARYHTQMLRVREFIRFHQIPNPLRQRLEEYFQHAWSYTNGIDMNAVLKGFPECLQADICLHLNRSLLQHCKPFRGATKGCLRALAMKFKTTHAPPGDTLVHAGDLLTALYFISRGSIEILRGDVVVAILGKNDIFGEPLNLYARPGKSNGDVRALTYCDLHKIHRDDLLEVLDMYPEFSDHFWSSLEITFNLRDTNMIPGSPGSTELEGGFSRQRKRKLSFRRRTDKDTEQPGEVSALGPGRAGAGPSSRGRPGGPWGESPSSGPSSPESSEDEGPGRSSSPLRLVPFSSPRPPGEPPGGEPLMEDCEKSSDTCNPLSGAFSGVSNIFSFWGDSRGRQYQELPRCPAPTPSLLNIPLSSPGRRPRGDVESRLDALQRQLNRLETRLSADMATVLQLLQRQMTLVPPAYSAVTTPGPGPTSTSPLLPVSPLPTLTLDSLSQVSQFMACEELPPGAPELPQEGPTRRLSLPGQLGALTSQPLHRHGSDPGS

[13] = test system: Mus musculus; experiment: Reduction in plasma cortisol level in db/db mouse at 150 mg/kg, po after 30 mins […] measured after 5.5 hrs relative to control; assay type: functional
[14] = test system: Mus musculus; experiment: Toxicity in db/db mouse assessed as sedative effect at 150 mg/kg, po after 13 days; assay type: organism-based; set-up: dose 150 mg/kg, route oral; conditions: in vivo, 312 h
[15] = Cmax in rat at 50 mg/kg, po; assay type: ADME, organism-based; set-up: dose 50 mg/kg, route oral; conditions: in vivo
[16] = target: 11-beta-hydroxysteroid dehydrogenase 1 (Homo sapiens, UniProt P28845); experiment: Inhibition of full-length human 11betaHSD1 expressed in HEK293 cells assessed as cortisol level by competitive ELISA; assay type: cell-based
Sequence of 11-beta-hydroxysteroid dehydrogenase 1 (Homo sapiens, UniProt P28845) (P28845 whole entry): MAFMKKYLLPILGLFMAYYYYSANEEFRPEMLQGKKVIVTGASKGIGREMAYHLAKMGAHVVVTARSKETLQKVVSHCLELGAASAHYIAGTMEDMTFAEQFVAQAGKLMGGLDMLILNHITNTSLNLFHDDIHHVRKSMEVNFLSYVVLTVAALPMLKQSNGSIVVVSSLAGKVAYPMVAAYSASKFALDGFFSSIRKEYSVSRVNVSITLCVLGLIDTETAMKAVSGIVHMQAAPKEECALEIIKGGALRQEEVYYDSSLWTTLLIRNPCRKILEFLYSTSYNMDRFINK

| SMILES | clearance [1] [mL/min/kg] | IC50 [2] [nM] | Tmax [3] [h] | Vd [5] [L/kg] | Papp [6] [×10⁻⁶ cm/s] | solubility kinetic [7] [µg/mL] | half-life [8] [h] | bioavailability [10] [%] | microsomal CLint at 1 µM [11] [µL/min/mg] | other results |
| --- | --- | --- | --- | --- | --- | --- | --- | --- | --- | --- |
| Cn1c2c(c(=O)n1-c1ccccc1)[C@H]1CC[C@]2(C)C1(C)C | 25.7 | 138 | 0.5 | 1.4 | 9.7 | 169 (≈ 598 µM) | 1.2 | 9 | 3.6 | Cmax [4]: 335 ng/mL; IC50 [9]: > 50000 nM |
| CC(C)n1c2c(c(=O)n1-c1ccccc1F)[C@H]1CC[C@]2(C)C1(C)C |  | 22 |  |  |  |  |  |  |  |  |
| CC1(C)[C@@H]2CC[C@@]1(C)c1c2c(=O)n(-c2ccc(F)cc2F)n1CCc1ccccc1 |  | 18 |  |  |  |  |  |  |  |  |
| Cc1ccccc1-c1cccc(Cn2c(=O)c3c(n2C)[C@]2(C)CC[C@H]3C2(C)C)c1 |  | 21 |  |  |  |  |  |  |  |  |
| CCCn1c2c(c(=O)n1-c1ccccc1F)[C@H]1CC[C@]2(C)C1(C)C |  | 110 |  |  |  |  |  |  |  |  |
| COc1c2c(nn1-c1ccc(C)cc1)[C@]1(C)CC[C@H]2C1(C)C |  | > 11000 |  |  |  |  |  |  |  | IC50 [16]: > 22000 nM |
| CC1(C)[C@@H]2CC[C@@]1(C)c1c2c(=O)n(-c2ccccc2)n1Cc1ccccc1 | 57.5 | 16 | 3.2 | 2.3 | 8.8 | 171 (≈ 477 µM) | 0.9 | 29 | 645 | Cmax [15]: 648 ng/mL |
| Cn1c2c(c(=O)n1-c1ccccn1)[C@H]1CC[C@]2(C)C1(C)C |  | > 5000 |  |  |  |  |  |  |  |  |
| C=CCn1c2c(c(=O)n1-c1ccccc1F)[C@H]1CC[C@]2(C)C1(C)C |  | 35 |  |  |  |  |  |  |  |  |
| CCn1c2c(c(=O)n1-c1ccccc1)[C@H]1CC[C@]2(C)C1(C)C |  | 18 |  |  |  |  |  |  |  |  |
| COc1cccc(-n2c(=O)c3c(n2C)[C@]2(C)CC[C@H]3C2(C)C)c1 |  | 41 |  |  |  |  |  |  |  |  |
| Cn1c2c(c(=O)n1Cc1ccccc1)[C@H]1CC[C@]2(C)C1(C)C |  | 77 |  |  |  |  |  |  |  |  |
| Cn1c2c(c(=O)n1-c1ccccc1)[C@@H]1CC[C@@]2(C)C1(C)C |  | 116 |  |  |  |  |  |  |  |  |
| Cn1c2c(c(=O)n1-c1c(Cl)cccc1Cl)[C@H]1CC[C@]2(C)C1(C)C |  | > 11000 |  |  |  |  |  |  |  | IC50 [16]: > 22000 nM |
| Cn1c2c(c(=O)n1-c1ccccc1Cl)[C@H]1CC[C@]2(C)C1(C)C | 29.3 | 39 | 1 | 2.7 | 9.9 | > 625 | 4.9 | 29 | 197 | Cmax [15]: 2840 ng/mL; IC20 [12]: > 30000 nM; IC50 [9]: > 50000 nM |

The next compounds have a lower IC50 [2] than those just listed; values first:

| clearance [1] [mL/min/kg] | IC50 [2] [nM] | Tmax [3] [h] | Vd [5] [L/kg] | Papp [6] [×10⁻⁶ cm/s] | solubility kinetic [7] [µg/mL] | half-life [8] [h] | bioavailability [10] [%] | microsomal CLint at 1 µM [11] [µL/min/mg] | SMILES | other results |
| --- | --- | --- | --- | --- | --- | --- | --- | --- | --- | --- |
| 31.8 | 10 | 0.7 | 1.2 | 10.9 | > 376 | 1 | 109 | 68 | Cn1c2c(c(=O)n1-c1ccccc1C(F)(F)F)[C@H]1CC[C@]2(C)C1(C)C | IC20 [12]: > 30000 nM; Cmax [4]: 2150 ng/mL; inhibition (INH) [13]: 93%; Activity [14]: Toxic; IC50 [9]: 22600 nM |
| 34.8 | 10 | 0.8 | 2 | 8.2 | 246 (≈ 675 µM) | 3 | 5 | 604 | Cn1c2c(c(=O)n1Cc1ccccc1C(F)(F)F)[C@H]1CC[C@]2(C)C1(C)C | Cmax [15]: 294 ng/mL; IC50 [9]: 4800 nM |
| 29 | 13 | 2.3 | 1 | 11.2 | 82 (≈ 208 µM) | 0.8 | 35 | 582 | CC1(C)[C@@H]2CC[C@@]1(C)c1c2c(=O)n(-c2ccc(F)cc2F)n1Cc1ccccc1 | Cmax [15]: 2280 ng/mL; IC20 [12]: > 30000 nM; inhibition (INH) [13]: 93%; IC50 [9]: 6100 nM |
|  | 4 |  |  |  |  |  |  |  | Cn1c2c(c(=O)n1-c1cccc(I)c1)[C@H]1CC[C@]2(C)C1(C)C |  |
| 40.2 | 5 | 0.5 | 4.6 | 6.7 | 50 (≈ 142 µM) | 5.4 | 71 | 170 | Cn1c2c(c(=O)n1-c1cc(Cl)ccc1Cl)[C@H]1CC[C@]2(C)C1(C)C | Cmax [15]: 280 ng/mL; IC20 [12]: 51000 nM; inhibition (INH) [13]: 93%; Activity [14]: Non-toxic; IC50 [9]: > 25000 nM |
|  | 12 |  |  |  |  |  |  |  | CC1(C)[C@@H]2CC[C@@]1(C)c1c2c(=O)n(-c2ccccc2F)n1Cc1ccccc1 |  |
